US5543147A, “Crystalline modification of 2,4-dioxo-6-methyl-1,2,3,4-tetrahydropyrimidine, a method for the preparation thereof and a medicinal preparation based on it” (Leonidov; Nikolai B., priority 1994, dated 1996)
Where two headings read alike, the source gives them in different places.

Columns and labels:
eyes = assay: safety of long-term subconjunctival inoculations (2-month toxicological experiment); format: in vivo, white rats and chinchilla rabbits
Protocol: The study on the safety of long-term subconjunctival inoculations of the claimed modification in comparison with the known form of the said compound was carried out in a 2-month-long toxicological experiment in 148 mature male and female white rats and 49 male and female chinchilla rabbits.
Male rats and rabbits were given subconjunctivally I drop each of 2%, 25% and 50% suspension of the claimed modification of the said compound into each eye once daily. The results obtained were compared with those in a group of male rats and rabbits given one drop of 2% suspension of the known form of the said compound into the eye. Besides, a 2% suspension of the claimed modification of the said compound was given to a group of female rats and rabbits which were compared with the control group. In a separate series of experiments in the same animals (rats, rabbits) carried out by the same schedule of a chronic experiment, the effect of the claimed pharmaceutical in the form of an eye ointment containing as the active substance the claimed modification of the said compound was determined. The results of this study confirm the data obtained in the studies of the effect of the claimed compound. Comparisons with the pharmaceutical containing the known form of the said compound gave analogous results.

[1] = solubility of the crystalline powder; format: physicochemical
subacute toxicity = format: in vivo, random-bred white mice, rats, and chinchilla rabbits; conditions: subacute routes of inoculation
Protocol: (§1) Trials of the toxicity of the claimed crystalline modification of the said compound were carried out comparing it with the known crystalline form of the said compound.
(§2) Investigations of the general toxic effect of the claimed crystalline modification of 2,4-dioxo-6-methyl-1,2,3,4-tetrahydropyrimidine and the known crystalline form of the said compound were carried out in 3 […] species (random-bred white mice, rats, and chinchilla rabbits).

[2] = rate of dissolution of the active substance (rotary basket); format: physicochemical; conditions: water for injections 1000 ml, 37±1° C, 50 rpm, 0.25 g, 0 to 45 min
Protocol: The rate of dissolution of the active substance is determined in a "rotary basket" type DT-D6 apparatus (Erweka Co, BRD) at a mixing rate of 50 rpm. The dissolving medium is water for injections in a volume of 1000 ml at a temperature of 37±1° C. The content of the active substance in the solution is determined spectrophotometrically in a spectrophotometr No. 75 (Perkin-Elmer Co) at a wave length of 259 nm. For comparison, the known crystalline form of the said compound is used under identical conditions. The parameter for comparison is the constant of dissolution rate based on the mean results of the compound transition into solution from the amount thereof used (0.25 g) in the time of 0 to 45 min. The water for injections is used as a control.

[3] = tested on: allergenic and immunotoxic properties; assay: studies of the allergenic and immunotoxic properties
plane multilayer wounds = assay: wound-healing activity, plane multilayer wounds in rats; format: in vivo, random-bred white male rats; conditions: for Rate of healing at 7 days / Rate of healing at 10 days / Rate of healing at 15 days / Mean time of falling off of crusts / Mean time of healing / Speeding up of healing: claimed 0.25% solution, known 1% solution in 0.9% aqueous NaCl
Protocol: (§3) The tests were carried out in 2 groups of 41 random-bred white male rats weighing 200±10 g. The experimental model in the 1st group were linear wounds of 50 mm long inflicted on the backs of the rats. Depending on the crystalline form of the tested compound used the rats were divided into 3 series. The first series was control--the wounds were pricked once daily with 0.9% aqueous solution of sodium chloride (0.5 ml) for 3 days. In the 2nd series the wounds were pricked by the same method with 1% solution of the known crystalline form of the said compound in 0.9% aqueous solution of sodium chloride. In the 3rd series the wounds were pricked by the same method with 0.25% solution of the claimed compound in 0.9% aqueous solution of sodium chloride.
Plane multilayer wounds of 400 mm^2 in area inflicted on the backs of rats were an experimental model in the 2nd group of experiments. The animals were also divided into 3 series. Here, the pricking of the wound was done by the same schedule as in the 1st group. The parameters of the wound process in the time course at 7, 10 and 15 days after wound inflicting were assessed by the methods of tensiometry, planimetry and clinical observations. The time of falling off of crusts and complete healing of the wounds was determined. The rate of the wound area decrease (V) in the course of healing was calculated by the formula [formula] wherein So is the initial wound area, mm^2,
St the wound area on the day of measurement t, mm^2.
(§4) The results of trials of the wound-healing activity of the claimed and the known crystalline forms of the said compound were statistically treated with the confidence limit of 95%.

acute toxicity = format: in vivo, random-bred white mice, rats, and chinchilla rabbits
Protocol: as §1, §2

linear wounds = assay: wound-healing activity, model of linear wounds in rats (scar strength); format: in vivo, random-bred white male rats; conditions: for Strength of the scar: wounds pricked once daily for 3 days; for Strength of the scar / Increase of the scar strength as compared with control: claimed 0.25% solution, known 1% solution in 0.9% aqueous NaCl
Protocol: as §3, §4

wounds = assay: preliminary experiments on the wound-healing effect; format: in vivo
[4] = prior-art description, cited from earlier work

With `Cc1cc(O)nc(O)n1` [claimed modification, 2,4-dioxo-6-methyl-1,2,3,4-tetrahydropyrimidine] the “microscopic changes in the eye” value (eyes; large doses) was “lymphoid infiltrates were formed in the ciliary body, iris, and sometimes in the initial parts of the optic nerve, but these changes were reversible”, the “macroscopic local inflammatory reactions of the eyes” value (eyes; long-term administration) was “no macroscopic local inflammatory reactions of the eyes” and the solubility in chloroform ([1]; chloroform) was “practically insoluble”. For the same molecule, the “solubility in ethyl alcohol” value ([1]; ethyl alcohol) was “poorly soluble”, the “solubility in ethyl ether” value ([1]; ethyl ether) was “practically insoluble” and the solubility in water ([1]; water) was “poorly soluble”. For the same molecule, the cumulative effect (subacute toxicity) was “weak”, the “constant of the dissolution rate K” value [2] was 0.025 min⁻¹ and the “formation of the tumor necrosis factor” value [3] was “not to be conducive to the formation of the tumor necrosis factor”. For the same molecule, the “functional activity of the B-cell immunity” value [3] was “no effect on the functional activity of the B-cell immunity”, the “functional activity of the Te-cell immunity” value [3] was “not to inhibit the functional activity of the Te-cell immunity” and the specific leukocyte lysis [3] was “no specific leukocyte lysis”. For the same molecule, the “specific reaction of leukocyte agglomeration” value [3] was “no specific reaction of leukocyte agglomeration”, the “allergenic and immunotoxic properties” value ([3]; overall) was “no allergenic and immunotoxic properties” and the “shortening of time of complete healing of plane wounds as compared with the control” value (plane multilayer wounds) was 26.2%. For the same molecule, the “shortening of time of complete healing of plane wounds as compared with the known form of the compound” value (plane multilayer wounds; 0.25% vs 1% solution) was 12%, the “Rate of healing at 7 days” value (plane multilayer wounds) was 61.6 ± 6.3% and the “Rate of healing at 10 days” value (plane multilayer wounds) was 89.0 ± 4.9%. The “Rate of healing at 15 days” value (plane multilayer wounds) was 95.4 ± 3.8%, the “Mean time of falling off of crusts” value (plane multilayer wounds) was 8.6 ± 0.7 days and the “Mean time of healing” value (plane multilayer wounds) was 17.7 ± 1.6 days. The “Speeding up of healing” value (plane multilayer wounds) was 26.2%, the “class of toxicity (acute toxicity)” value (acute toxicity) was “Vth class of toxicity (practically non-toxic compounds)” and the “class of toxicity (acute toxicity, intraperitoneal route)” value (acute toxicity; intraperitoneal) was “VI class of relatively harmless compounds”. For the same molecule, the mean lethal dose (acute toxicity; subconjunctival route) was “could not be established”, the “increase of rupture strength of linear wounds as compared with the control” value (linear wounds; 7 days) was 90.4% and the “increase of rupture strength of linear wounds as compared with the known form of the compound” value (linear wounds; 7 days, 0.25% vs 1% solution) was 43%. For the same molecule, the “Strength of the scar” value (linear wounds; 7 days) was 57.3 ± 9.0 g/mm^2, the “Increase of the scar strength as compared with control” value (linear wounds) was 90.4 and the “concentration of solution at which significant (comparable) wound-healing effect was manifested” value (wounds) was 0.25 % by weight.
For `Cc1cc(O)nc(O)n1` [known form, 2,4-dioxo-6-methyl-1,2,3,4-tetrahydropyrimidine], the “constant of the dissolution rate K” value [2] is listed as 0.18 min⁻¹, the solubility in chloroform ([4]; chloroform) is listed as “insoluble” and the solubility in ether ([4]; ether) is listed as “insoluble”. For the same molecule, the “solubility in ethyl alcohol” value ([4]; ethyl alcohol) was “poorly soluble”, the solubility in water ([4]; water) was “poorly soluble” and the “Rate of healing at 7 days” value (plane multilayer wounds) was 57.5 ± 8.3%. For the same molecule, the “Rate of healing at 10 days” value (plane multilayer wounds) was 80.2 ± 2.0%, the “Rate of healing at 15 days” value (plane multilayer wounds) was 90.2 ± 2.8% and the “Mean time of falling off of crusts” value (plane multilayer wounds) was 9.6 ± 0.5 days. For the same molecule, the “Mean time of healing” value (plane multilayer wounds) was 18.4 ± 1.6 days, the “Speeding up of healing” value (plane multilayer wounds) was 23.3% and the “class of toxicity (acute toxicity)” value (acute toxicity) was “slightly higher toxicity, although they belong to the same group”. For the same molecule, the “Strength of the scar” value (linear wounds; 7 days) was 40.1 ± 5.0 g/mm^2, the “Increase of the scar strength as compared with control” value (linear wounds) was 33.2 and the “concentration of solution at which significant (comparable) wound-healing effect was manifested” value (wounds) was 1 % by weight.
